The results in this text go back to US9837621B2, “Compound, light-emitting element, light-emitting device, electronic device, and lighting device” (Semiconductor Energy Laboratory Co., Ltd., priority 2014, dated 2017).

The nature of one data set: physchem. Format: physicochemical. To be noted: organic solvent or mixture, thermodynamic from solid. The text has this:
The compounds which are embodiments of the present invention and used in this example were 2mFDBtPDBq (sample 1) and 2mDBTBPDBq-VIII (sample 2). For the methods for synthesizing the compounds, Synthesis Examples 1 and 2 can be referred to. As comparative compounds, 2-[3′-(dibenzothiophen-4-yl)biphenyl-3-yl]dibenzo[f,h]quinoxaline (abbreviation: 2mDBTBPDBq-II) (comparative sample 3) and 2-[3-(dibenzothiophen-4-yl)phenyl]dibenzo[f,h]quinoxaline (abbreviation: 2mDBTPDBq-II) (comparative sample 4) were used in this example. The purity of each compound was 99.9%. The chemical formulae of the compounds are shown below.
The solvents used in this example were the four kinds of solvents: toluene, chloroform, ethyl acetate, and acetone.
A method for examining the solubility of the compound of each sample is described. First, 10 mg of the compound was put into a small bottle and to this was added 1 mL of a solvent. Then, whether the compound was dissolved at room temperature or not was checked. When the compound was not dissolved at room temperature, ultrasonic wave irradiation and then heating using a dryer were performed, so that whether the compound was dissolved or not was checked.
When the compound was not dissolved after heating, the volume of the solvent was increased to 10 mL, so that whether the compound was dissolved at room temperature or not was checked. […]

The nature of data set [1]: Thermogravimetry-differential thermal analysis (TG-DTA), 5% weight loss temperature. The conditions noted are these: nitrogen stream 200 mL/min, normal pressure, temperature rising rate 10° C./min. It counts as physicochemical. The procedure: Thermogravimetry-differential thermal analysis (TG-DTA) was performed on 2mFDBtPDBq. The measurement was conducted by using a high vacuum differential type differential thermal balance (TG/DTA 2410SA, manufactured by Bruker AXS K.K.). The measurement was conducted under a nitrogen stream (flow rate: 200 mL/min) at normal pressure at a temperature rising rate of 10° C./min. It was found from the relationship between weight and temperature (thermogravimetry) that the 5% weight loss temperature of 2mFDBtPDBq was 495° C.
TG-DTA was performed on 2mDBtBPDBq-VIII. The conditions of the measurement were similar to those in Example 1. It was found from thermogravimetry that the 5% weight loss temperature of 2mDBtBPDBq-VIII was 500° C. or higher.

A word on the solubility: it is how much of the substance goes into solution per volume.

For `CC1(C)c2ccccc2-c2ccc(-c3cccc4c3sc3c(-c5cccc(-c6cnc7c8ccccc8c8ccccc8c7n6)c5)cccc34)cc21` [2mFDBtPDBq, 2-{3-[6-(9,9-dimethylfluoren-2-yl)dibenzothiophen-4-yl]phenyl}dibenzo[f,h]quinoxaline], the solubility in “physchem” was over 10000 µg/mL. For the same molecule, the “5% weight loss temperature” value in data set [1] worked out at 495 °C.

With `CC1(C)c2ccccc2-c2ccc(-c3cccc4c3sc3c(-c5cccc(-c6cccc(-c7cnc8c9ccccc9c9ccccc9c8n7)c6)c5)cccc34)cc21` [2mDBtBPDBq-VIII, 2-(3-{3-[6-(9,9-dimethylfluoren-2-yl)dibenzothiophen-4-yl]phenyl}phenyl)dibenzo[f,h]quinoxaline], the solubility in “physchem” was over 10000 µg/mL. Further, the “5% weight loss temperature” value in data set [1] is at least 500 °C.
